The source of these data is patent US4246262A, “Derivatives of amidinopenicillanic acid” (Leo Pharmaceutical Products, Ltd. A/S, priority 1977, dated 1981).

Test in all cases: antibacterial activity, IC50 (concentration required for 50 percent inhibition)
Common to all, as to assay type: cell-based

Test [1] concerns Salmonella cholerasuis NCTC 5735. As to conditions: NCTC5735. From the text:
(§1) In the table below, the antibacterial activity of the compound of Example 2 is compared to that of the known compounds Ampicillin and Mecillinam.
(§2) In the table IC50 means the concentration required for 50 percent inhibition.

Test [2] relates to Klebsiella pneumoniae ATCC 10273. As to conditions: ATCC10273.
Description: as §1, §2

In test [3] the test system is Pseudomonas aeruginosa PS 18s. As to conditions: PS18S.
Description: as §1, §2

Test [4] has as its system Enterobacter cloacae P 99. Particulars: P99.
Description: as §1, §2

For test [5], the system named is E.coli W3110 (RTEM). As to conditions: Escherichia coli.
Description: as §1, §2

Test [6] deals with E.coli HA 2 Leo strain. As to conditions: Escherichia coli, HA2LEOSTRAIN
Description: as §1, §2

For test [7], the system named is Pseudomonas aeruginosa BA 2 Leo strain. Particulars: BA2LEOSTRAIN
Description: as §1, §2

Test [8] concerns Salmonella typhimurium NCTC 5710. As to conditions: Salmonella enterica.
Description: as §1, §2

Each structure is given as a SMILES string. In brackets after ≈: the same amount, converted by molar mass. Counter-ions that a name gives are not always drawn.

By IC50 is commonly meant the concentration that inhibits the measured activity by half. For `CC1(C)S[C@@H]2[C@H](NC(=O)[C@H](N)c3ccccc3)C(=O)N2[C@H]1C(=O)O` [Ampicillin], the IC50 is 0.25 µg/mL (≈ 0.715 µM) in test [1]; 79 µg/mL (≈ 226 µM) in test [2]; 50 µg/mL (≈ 143 µM) in test [3]; above 100 µg/mL in test [4]; above 100 µg/mL in test [5]; 1.3 µg/mL (≈ 3.72 µM) in test [6]. Further, the values for the IC50 in test [7] and in test [8] were above 100 µg/mL and 0.4 µg/mL (≈ 1.14 µM), respectively.

Regarding `CC1(C)S[C@@H]2[C@H](N=CN3CCC(CSCCN)CC3)C(=O)N2[C@H]1C(=O)O` [Example 2, 6-[4'-(2"-Aminoethylthiomethyl)-piperidino-methyleneamino]-penicillanic acid hydrochloride], the half-maximal inhibitory concentration (IC50) in test [1] was 0.05 µg/mL; in test [2], 0.32 µg/mL; in test [3], 40 µg/mL; in test [4], 0.063 µg/mL; in test [5], 1.6 µg/mL; in test [6], 0.05 µg/mL. The values for the half-maximal inhibitory concentration (IC50) in test [7] and in test [8] were 50 µg/mL and 0.05 µg/mL, respectively.

On to `CC1(C)S[C@@H]2[C@H](/N=C/N3CCCCCC3)C(=O)N2[C@H]1C(=O)O` [Mecillinam], for which the IC50 in test [1] is 0.05 µg/mL (≈ 0.154 µM); in test [2], around 1 µg/mL (≈ 3.07 µM); in test [3], above 100 µg/mL; in test [4] it was 0.1 µg/mL (≈ 0.307 µM); in test [5] it was 2 µg/mL (≈ 6.15 µM); in test [6], 0.016 µg/mL (≈ 0.0492 µM). The results for the IC50 in test [7] and in test [8] were above 100 µg/mL and 0.05 µg/mL (≈ 0.154 µM), respectively.
